Experimental data taken from patent US20260265248A1, “NOVEL PD-L1 INHIBITORS” (AFFIRMA BIOTECH S. L., priority 2023, published 2026).

Each molecule was assayed against T1, PD-1/PD-L1 (Homo sapiens, UniProt Q9NZQ7) (assay: PD1-PDL1 HTRF assay). Conditions: PD-1/PD-L1 homogenous time-resolved fluorescence (HTRF) binding assay; Tag1-PDL1 5 nM, Tag2-PD1 50 nM.
T1 construct: purchased CisBio
Excerpt: The CisBio HTRF assay kit, purchased from CisBio only, was employed to determine the IC50 values of compounds. The PD1-PDL1 HTRF assay measures the interactions between the two proteins, PD1 and PDL1. The interaction is detected by using anti-Tag1 labeled with Europium (HTRF donor) which binds to PDL1 and anti-Tag2 labeled with XL665 (HTRF acceptor) which binds to PD1. When the two antibodies are in proximity, the excitation of the donor fluorophore results in FRET emission from the acceptor fluorophore. The presence of inhibitors for such an interaction result in reduction of HTRF signal.
The assay was conducted in 96-well white assay plates. All the reagents, including Tag1-PDL1, Tag2-PD1, Anti-Tag1-PDL1, Anti-Tag2-PD1 were thawed and diluted with PPI Europium Detection buffer to achieve the desired concentration as per the manufacturer's protocol. A 1000 μM stock solution of test inhibitors was prepared in DMSO. The stock solution was diluted in DMSO to prepare 8 concentrations (1000-0.001 μM). These stock solutions were further diluted in PPI Europium detection buffer to prepare 8 working stock solutions (100-0.0001 μM). To the 96-well plate, 2 μL of the test inhibitor working stock solutions were added followed by 4 μL of Tag1-PDL1 (5 nM) and 4 μL of Tag2-PD1 (50 nM). The plate was incubated at room temperature for 15 min. Subsequently, 10 μL of pre-mixed Anti-Tag1-PDL1 and Anti-Tag2-PD1 solution was added. The plate was sealed and incubated at room temperature for 1 h. The HTRF signal was read on Perkin Elmer Envision plate reader using excitation wavelength of 320 nm, emission wavelengths of 620 nm and 665 nm. Results were obtained by calculating the ratio of signal from acceptor at 665 nm to that of signal from donor at 620 nm multiplied by […]. The IC50 values were determined by the Hill equation using GraphPad Prism software.

T1 sequence (Q9NZQ7 19-238 limits assumed): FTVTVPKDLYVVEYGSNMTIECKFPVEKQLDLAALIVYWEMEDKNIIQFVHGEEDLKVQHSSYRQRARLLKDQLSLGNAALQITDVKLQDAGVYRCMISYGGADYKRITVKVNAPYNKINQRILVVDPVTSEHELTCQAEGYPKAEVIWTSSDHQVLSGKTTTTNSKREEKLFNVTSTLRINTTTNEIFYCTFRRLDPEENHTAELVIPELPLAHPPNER

IC50 | Structure (SMILES)
100 to 1000 nM | Cc1c(-c2ccccc2)cccc1-c1ccn2c(-c3ccc(CN4CCCCC4C(=O)O)cc3)cnc2c1 (racemic) [Example 1, 1-(4-(7-(2-methyl-[1,1′-biphenyl]-3-yl)imidazo[1,2-a]pyridin-3-yl)benzyl) piperidine-2-carboxylic acid]
100 to 1000 nM | Cc1c(-c2ccc3c(c2)OCCO3)cccc1-c1ccn2c(-c3ccc(CN4CCOCC4C(=O)O)cc3)cnc2c1 (racemic) [Example 33, 4-(4-(7-(3-(2,3-dihydrobenzo[b][1,4]dioxin-6-yl)-2-methylphenyl)imidazo[1,2-a]pyridin-3-yl)benzyl)morpholine-3-carboxylic acid]
100 to 1000 nM | Cc1c(-c2ccc3c(c2)OCCO3)cccc1-c1ccn2c(-c3ccc(CN4CCOCC4C(=O)O)cc3)cnc2c1 (single isomer, unassigned) [Example 34, 4-(4-(7-(3-(2,3-dihydrobenzo[b][1,4]dioxin-6-yl)-2-methylphenyl)imidazo[1,2-a]pyridin-3-yl)benzyl)morpholine-3-carboxylic acid]
100 to 1000 nM | Cc1c(-c2ccc3c(c2)OCCO3)cccc1-c1ccn2c(-c3ccc(CN4CCOCC4C(=O)O)cc3)cnc2c1 (single isomer, unassigned) [Example 35, 4-(4-(7-(3-(2,3-dihydrobenzo[b][1,4]dioxin-6-yl)-2-methylphenyl)imidazo[1,2-a]pyridin-3-yl)benzyl)morpholine-3-carboxylic acid]
10 to 100 nM | Cc1c(-c2ccccc2)cccc1-c1ccn2c(-c3ccc(CN4CCC[C@H]4C(=O)O)cc3)cnc2c1 [Example 2, (4-(7-(2-methyl-[1,1′-biphenyl]-3-yl)imidazo[1,2-a]pyridin-3-yl)benzyl)proline]
100 to 1000 nM | Cc1c(-c2ccccc2)cccc1-c1ccn2c(-c3ccc(CNC4(C(=O)O)COC4)cc3)cnc2c1 [Example 3, 3-((4-(7-(2-methyl-[1,1′-biphenyl]-3-yl)imidazo[1,2-a]pyridin-3-yl)benzyl)amino)oxetane-3-carboxylic acid]
100 to 1000 nM | Cc1c(-c2ccccc2)cccc1-c1ccn2c(-c3ccc(CN4C[C@H](O)C[C@H]4C(=O)O)cc3)cnc2c1 [Example 4, (2S,4R)-4-hydroxy-1-(4-(7-(2-methyl-[1,1′-biphenyl]-3-yl)imidazo[1,2-a]pyridin-3-yl)benzyl)pyrrolidine-2-carboxylic acid]
100 to 1000 nM | Cc1c(-c2ccccc2)cccc1-c1ccn2c(-c3ccc(CNC4(C(=O)O)CCC4)cc3)cnc2c1 [Example 5, 1-((4-(7-(2-methyl-[1,1′-biphenyl]-3-yl)imidazo[1,2-a]pyridin-3-yl)benzyl)amino)cyclobutane-1-carboxylic acid]
100 to 1000 nM | Cc1c(-c2ccccc2)cccc1-c1ccn2c(-c3ccc(CN4CCOCC4C(=O)O)cc3)cnc2c1 (centres unmarked) [Example 6, 4-(4-(7-(2-methyl-[1,1′-biphenyl]-3-yl)imidazo[1,2-a]pyridin-3-yl)benzyl)morpholine-3-carboxylic acid]
100 to 1000 nM | Cc1c(-c2ccccc2)cccc1-c1ccn2c(-c3ccc(CN4CC(C(=O)O)C4)cc3)cnc2c1 [Example 7, 1-(4-(7-(2-methyl-[1,1′-biphenyl]-3-yl)imidazo[1,2-a]pyridin-3-yl)benzyl)azetidine-3-carboxylic acid]
100 to 1000 nM | Cc1c(-c2ccccc2)cccc1-c1ccn2c(-c3ccc(CNCCCO)cc3)cnc2c1 [Example 8, 3-((4-(7-(2-methyl-[1,1′-biphenyl]-3-yl)imidazo[1,2-a]pyridin-3-yl)benzyl)amino)propan-1-ol]
100 to 1000 nM | Cc1c(-c2ccccc2)cccc1-c1ccn2c(-c3ccc(CN[C@H](C(=O)O)C(C)C)cc3)cnc2c1 [Example 9, (4-(7-(2-methyl-[1,1′-biphenyl]-3-yl)imidazo[1,2-a]pyridin-3-yl)benzyl)valine]
100 to 1000 nM | Cc1c(-c2ccccc2)cccc1-c1ccn2c(-c3ccc(CN4CCC[C@H]4C(=O)O)cc3)cnc2c1 [Example 10, (4-(7-(2-methyl-[1,1′-biphenyl]-3-yl)imidazo[1,2-a]pyridin-3-yl)benzyl)-L-proline]
100 to 1000 nM | Cc1c(-c2ccccc2)cccc1-c1ccn2c(-c3ccc(CN4CCC[C@@H]4C(=O)O)cc3)cnc2c1 [Example 11, (4-(7-(2-methyl-[1,1′-biphenyl]-3-yl)imidazo[1,2-a]pyridin-3-yl)benzyl)-D-proline]
100 to 1000 nM | Cc1c(-c2ccccc2)cccc1-c1ccn2c(-c3ccc(CNCC(=O)O)cc3)cnc2c1 [Example 12, (4-(7-(2-methyl-[1,1′-biphenyl]-3-yl)imidazo[1,2-a]pyridin-3-yl)benzyl)glycine]
100 to 1000 nM | Cc1c(-c2ccccc2)cccc1-c1ccn2c(-c3ccc(CN4CC[C@H]4C(=O)O)cc3)cnc2c1 [Example 13, (S)-1-(4-(7-(2-methyl-[1,1′-biphenyl]-3-yl)imidazo[1,2-a]pyridin-3-yl)benzyl)azetidine-2-carboxylic acid]
100 to 1000 nM | Cc1c(-c2ccccc2)cccc1-c1ccn2c(-c3ccc(CNCC(O)CC(=O)O)cc3)cnc2c1 (centres unmarked) [Example 14, 3-hydroxy-4-((4-(7-(2-methyl-[1,1′-biphenyl]-3-yl)imidazo[1,2-a]pyridin-3-yl)benzyl)amino) butanoic acid]
100 to 1000 nM | Cc1c(-c2ccccc2)cccc1-c1ccn2c(-c3ccc(CNCCCO)cc3)nnc2c1 [Example 15, 3-((4-(7-(2-methyl-[1,1′-biphenyl]-3-yl)-[1,2,4]triazolo[4,3-a]pyridin-3-yl)benzyl)amino)propan-1-ol]
100 to 1000 nM | Cc1c(-c2ccccc2)cccc1-c1ccn2c(-c3ccc(CNC(C)(C)CO)cc3)cnc2c1 [Example 17, 2-methyl-2-((4-(7-(2-methyl-[1,1′-biphenyl]-3-yl)imidazo[1,2-a]pyridin-3-yl)benzyl)amino)propan-1-ol]
100 to 1000 nM | Cc1c(-c2ccccc2)cccc1-c1ccn2c(-c3ccc(CNCCC(=O)O)cc3)cnc2c1 [Example 18, 3-((4-(7-(2-methyl-[1,1′-biphenyl]-3-yl)imidazo[1,2-a]pyridin-3-yl)benzyl)amino)propanoic acid]
100 to 1000 nM | Cc1c(-c2ccccc2)cccc1-c1ccn2c(-c3ccc(CNCCS(=O)(=O)O)cc3)cnc2c1 [Example 19, 2-((4-(7-(2-methyl-[1,1′-biphenyl]-3-yl)imidazo[1,2-a]pyridin-3-yl)benzyl)amino)ethane-1-sulfonic acid]
100 to 1000 nM | COc1cc(-c2cnc3cc(-c4cccc(-c5ccccc5)c4C)ccn23)cc(OC)c1CN1CCCC1C(=O)O (centres unmarked) [Example 20, 1-(2,6-dimethoxy-4-(7-(2-methyl-[1,1′-biphenyl]-3-yl)imidazo[1,2-ai]pyridin-3-yl)benzyl)piperidine-2-carboxylic acid]
100 to 1000 nM | COc1cc(-c2cnc3cc(-c4cccc(-c5ccccc5)c4C)ccn23)cc(OC)c1CN1CCC[C@H]1C(=O)O [Example 21, (2,6-dimethoxy-4-(7-(2-methyl-[1,1′-biphenyl]-3-yl)imidazo[1,2-a]pyridin-3-yl)benzyl)proline]
100 to 1000 nM | Cc1c(-c2ccccc2)cccc1-c1ccn2c(-c3ccc(CN4CCC[C@@H]4CO)cc3)cnc2c1 [Example 23, (R)-(1-(4-(7-(2-methyl-[1,1′-biphenyl]-3-yl)imidazo[1,2-a]pyridin-3-yl)benzyl)pyrrolidin-2-yl)methanol]
100 to 1000 nM | Cc1c(-c2ccccc2)cccc1-c1ccn2c(-c3ccc(CN4CCC[C@H]4CO)cc3)cnc2c1 [Example 24, (S)-(1-(4-(7-(2-methyl-[1,1′-biphenyl]-3-yl)imidazo[1,2-a]pyridin-3-yl)benzyl)pyrrolidin-2-yl)methanol]
100 to 1000 nM | Cc1c(-c2ccc3c(c2)OCCO3)cccc1-c1ccn2c(-c3ccc(CN4CC(C(=O)O)C4)cc3)cnc2c1 [Example 25, 1-(4-(7-(3-(2,3-dihydrobenzo[b][1,4]dioxin-6-yl)-2-methylphenyl)imidazo[1,2-a]pyridin-3-yl)benzyl)azetidine-3-carboxylic acid]
100 to 1000 nM | Cc1c(-c2ccc3c(c2)OCCO3)cccc1-c1ccn2c(-c3ccc(CN4CC[C@H]4C(=O)O)cc3)cnc2c1 [Example 26, (S)-1-(4-(7-(3-(2,3-dihydrobenzo[b][1,4]dioxin-6-yl)-2-methylphenyl)imidazo[1,2-a]pyridin-3-yl)benzyl)azetidine-2-carboxylic acid]
100 to 1000 nM | Cc1c(-c2ccc3c(c2)OCCO3)cccc1-c1ccn2c(-c3ccc(CN4CCC[C@@H]4C(=O)O)cc3)cnc2c1 [Example 27, (4-(7-(3-(2,3-dihydrobenzo[b][1,4]dioxin-6-yl)-2-methylphenyl)imidazo[1,2-a]pyridin-3-yl)benzyl)-D-proline]
100 to 1000 nM | Cc1c(-c2ccc3c(c2)OCCO3)cccc1-c1ccn2c(-c3ccc(CN4CCC[C@H]4C(=O)O)cc3)cnc2c1 [Example 28, (4-(7-(3-(2,3-dihydrobenzo[b][1,4]dioxin-6-yl)-2-methylphenyl)imidazo[1,2-a]pyridin-3-yl)benzyl)-L-proline]
